Columns and labels:
Assay in all cases: relative viability (nuclei count vs DMSO), 5 days (fraction); higher = more cells survive
Sulindac + Foretinib = compound: CC1=C(CC(=O)O)c2cc(F)ccc2/C1=C\c1ccc([S+](C)[O-])cc1 [Sulindac] + COc1cc2c(Oc3ccc(NC(=O)C4(C(=O)Nc5ccc(F)cc5)CC4)cc3F)ccnc2cc1OCCCN1CCOCC1 [Foretinib] (partner 0.25 µM)
Summary of the method: (§1)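 Values are medians from duplicate plates. Each reflects relative viability, defined as the nuclei count of treated wells over that of vehicle wells. Lung cancer cell lines in 1536-well plates were pin-tool dosed one day after seeding with one drug alone or with a fixed anchor-drug dose plus five library-drug doses (not always all listed) in √10 steps, then fixed, stained and imaged at 4× after 5 days.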

Sulindac + Linsitinib = compound: CC1=C(CC(=O)O)c2cc(F)ccc2/C1=C\c1ccc([S+](C)[O-])cc1 [Sulindac] + C[C@]1(O)C[C@@H](c2nc(-c3ccc4ccc(-c5ccccc5)nc4c3)c3c(N)nccn32)C1 [Linsitinib] (partner 1 µM)
Summary of the method: as §1

[1] = compound: O=c1[nH]cc(F)c(=O)[nH]1 [5-Fluorouracil] + C[C@]1(O)C[C@@H](c2nc(-c3ccc4ccc(-c5ccccc5)nc4c3)c3c(N)nccn32)C1 [Linsitinib] (partner 1 µM)
Summary of the method: as §1

[2] = compound: O=c1[nH]cc(F)c(=O)[nH]1 [5-Fluorouracil] + Cc1cc(Nc2cc(N3CCN(C)CC3)nc(Sc3ccc(NC(=O)C4CC4)cc3)n2)n[nH]1 [Tozasertib] (partner 0.1 µM)
Summary of the method: as §1

| Cell Line | relative viability (Sulindac + Foretinib; first compound 0.08 µM) | relative viability (Sulindac + Foretinib; first compound 0.253 µM) | relative viability (Sulindac + Foretinib; first compound 0.8 µM) | relative viability (Sulindac + Foretinib; first compound 2.53 µM) | relative viability (Sulindac + Foretinib; first compound 8 µM) | relative viability (Sulindac + Linsitinib; first compound 0.08 µM) | relative viability (Sulindac + Linsitinib; first compound 0.253 µM) | relative viability (Sulindac + Linsitinib; first compound 0.8 µM) | relative viability (Sulindac + Linsitinib; first compound 2.53 µM) | relative viability (Sulindac + Linsitinib; first compound 8 µM) | relative viability ([1]; first compound 0.02 µM) | relative viability ([1]; first compound 0.2 µM) | relative viability ([1]; first compound 0.6325 µM) | relative viability ([1]; first compound 2 µM) | relative viability ([2]; first compound 0.02 µM) | relative viability ([2]; first compound 0.2 µM) | relative viability ([2]; first compound 0.6325 µM) | relative viability ([2]; first compound 2 µM) |
| --- | --- | --- | --- | --- | --- | --- | --- | --- | --- | --- | --- | --- | --- | --- | --- | --- | --- | --- |
| EKVX | 0.666 | 0.942 | 0.421 | 0.683 | 0.995 | 0.872 | 1 | 0.721 | 0.92 | 1.04 | 0.891 | 0.282 | 0.153 | 0.142 | 0.35 | 0.172 | 0.147 | 0.131 |
| EMC-BAC-2 | 0.953 | 1.05 | 0.892 | 1.02 | 1.08 | 0.894 | 0.882 | 0.726 | 0.809 | 0.835 | 0.865 | 0.873 | 0.846 | 0.8 | 0.293 | 0.292 | 0.33 | 0.287 |
| EPLC-272H | 0.669 | 0.763 |  | 0.711 | 0.745 | 1.04 |  | 0.751 | 1.17 | 1.15 | 1.1 | 0.9 |  | 0.305 | 0.292 | 0.223 | 0.259 | 0.222 |
| H3255 | 0.962 | 0.853 | 0.678 | 0.879 | 0.827 | 0.923 | 1.03 | 0.745 | 1.02 | 1.1 | 0.99 | 1.07 | 0.853 | 0.579 | 0.63 | 0.663 | 0.652 | 0.497 |
| HARA | 1.28 | 1.05 | 0.991 | 0.819 | 1.1 | 1.23 | 1.09 |  | 1.06 | 0.851 | 0.963 | 1.02 | 0.885 | 0.891 | 0.165 | 0.122 | 0.129 | 0.103 |
| HCC-15 | 1.19 | 1.02 | 0.905 | 0.978 | 1.33 | 0.966 | 0.868 | 0.739 | 0.913 | 0.921 | 0.894 | 0.827 | 0.584 | 0.308 | 0.396 | 0.455 | 0.43 | 0.232 |
| HCC-44 |  |  |  |  |  | 0.769 | 0.729 | 0.707 | 0.702 | 0.786 | 0.613 | 0.57 | 0.451 | 0.272 | 1.19 | 0.844 | 0.739 | 0.291 |
| HCC-78 | 0.512 | 0.547 | 0.585 | 0.566 | 0.556 | 0.521 | 0.493 | 0.439 | 0.454 | 0.501 | 0.398 | 0.528 | 0.258 |  | 1.46 | 0.395 | 0.37 | 0.264 |
| HCC-366 | 0.838 | 0.964 | 0.999 | 0.994 | 0.998 | 0.567 | 0.759 | 0.183 | 0.787 | 1.03 | 0.673 | 0.82 | 0.254 | 0.0796 | 0.193 | 0.0738 | 0.0902 | 0.0478 |

From the supplement of paper PMC10307832
